Where a name gives a salt, the structure may show the parent alone. Read-outs that look alike come from different tables or passages of the source. Blank lines part the entries; values can stand above or below the molecule they belong to.
How the values were obtained:
[1] = biological target: Rabbit Reticulocyte Lysate (eukaryotic protein synthesis); assay: Rabbit reticulocyte lysate luciferase assay (inhibition of eukaryotic protein synthesis); format: biochemical; details: read-out: Rabbit reticulocyte IC50 (μM/% inhib.)
In short: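 Compounds were tested in 8-point 2-fold dilution series for blocking luciferase synthesis in nuclease-treated rabbit reticulocyte lysate (30° C., 90 minutes). Luminescence read-out, corrected by no-RNA background, was expressed as % inhibition against water-only reactions.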

A. baumannii (Ab) = assay: Broth microdilution minimum inhibitory concentration (MIC); format: cell-based; details: Acinetobacter baumannii, A. baumannii, read-out: Ab + bicarb MIC
Experimental: (§1) A certified BSL-2 laboratory was used for testing. Compounds were evaluated using the broth microdilution minimum inhibitory concentration (MIC) and minimum bactericidal concentration (MBC) assays defined by Clinical and Laboratory Standards Institute (CLSI) in the M26-A guideline against S. aureus (Sa), E. coli (Ec), K. pneumoniae (Kp), A. baumannii (Ab), E. faecalis (Ef) and P. aeruginosa (Pa).
(§2) MICs were determined using the Clinical Laboratory and Standards Institute (CLSI) Broth Microdilution Method with slight modification. Clinical and Laboratory Standards Institute (2012). “Methods for dilution antimicrobial susceptibility tests for bacteria that grow aerobically; approved standard, 9th ed. M07-A9. Clinical and Laboratory Standards Institute, Wayne, PA” Serial two-fold dilutions of compounds are prepared in sterile clear round-bottom 96-well plates.
(§3) To prepare microdilution trays, two-fold dilutions of antimicrobial agent are prepared in growth medium: Cation-Adjusted Mueller-Hinton Broth (CAMHB), or CAMHB supplemented with sodium bicarbonate (6.25 or 25 mM final concentration prepared from a 1.0M stock solution) or CAMHB supplemented with heat inactivated human serum (Fisher Cat. #BP2657100) 0-50% by adding 200 μL of the highest concentration to be tested (64 μg/mL, for example) in row A, mixing and transferring 100 μL from row A to 100 μL growth medium in row B, then repeating the mixing and transferring through row H of the 96-well plate, discarding the excess 100 μL remaining. This slight modification to the CLSI protocol enables evaluation of MICs for 3 compounds per plate in triplicate, albeit with only 8 compound dilutions (CLSI protocol enables 2 compounds in triplicate with 10 dilutions). Bacterial suspensions are added to a final concentration of 5×10^4 CFU/well by adding 5 μL of a 1:10 dilution of a 0.5 McFarland suspension (1×10^8 CFU/mL) for each bacterium evaluated. Bacterial suspensions were prepared using the growth method described by CLSI. Well-isolated colonies (3-5 from an agar plate) were selected using a sterile loop and used to inoculate a tube containing 4 mL of CAMHB. The cultures are incubated at 35±2° C. until it achieves or exceeds the turbidity of the 0.5 McFarland standard, determined by measuring A600nm (usually two to six hours). When growth exceeds a 0.5 McFarland standard, the turbidity is adjusted with broth to be equivalent to a 0.5 McFarland standard.

E. coli (Ec) = assay: as above; format: cell-based; details: Escherichia coli, read-out: E. coli + bicarb MIC
Experimental: as §1, §2, §3

P. aeruginosa (Pa) = assay: as above; format: cell-based; details: Pseudomonas aeruginosa, P. aeruginosa, read-out: Pa MIC + bicarb
Experimental: as §1, §2, §3

[2] = test system: E. coli S30 extract (bacterial protein synthesis); assay: E. coli S30 extract coupled transcription-translation luciferase assay (inhibition of bacterial protein synthesis); format: biochemical; details: read-out: S30 IC50 (μM/% inhib.)
In short: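 Luminescent read-out of luciferase made from pBESTluc DNA by E. coli S30 extract after 1 h at 37 °C with compound in an 8-point 2-fold series. Background came from no-DNA reactions. Percent inhibition was calculated against water-only controls.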

E. faecalis (Ef) = assay: Broth microdilution minimum inhibitory concentration (MIC); format: cell-based; details: Enterococcus faecalis, E. faecalis, read-out: Ef + bicarb MIC
Experimental: as §1, §2, §3

S. aureus (Sa) = assay: as above; format: cell-based; details: Staphylococcus aureus, read-out: Sa + bicarb MIC
Experimental: as §1, §2, §3

[3] = class by IC50 or % inhibition @ 1 μM
[4] = growth medium supplemented with sodium bicarbonate
[5] = E. coli, growth medium supplemented with sodium bicarbonate
[6] = S. aureus, growth medium supplemented with sodium bicarbonate
[7] = growth medium with sodium bicarbonate
[8] = E. coli, growth medium with sodium bicarbonate

- IC50 [1, 3]: > 1 µM
- MIC (A. baumannii (Ab); [4]): > 32 µg/mL
- MIC (E. coli (Ec); [5]): > 32 µg/mL
- MIC (P. aeruginosa (Pa); [4]): > 32 µg/mL
Structure (SMILES): C[C@@H]1CN(C(=O)Nc2ccn(-c3ccc(CN4CCC(N)CC4)cc3)c(=O)n2)[C@@H](C)CN1C(=O)C(C)(C)N [Compound 74]

Structure (SMILES): CC(N)[C@H]1CCN(CCc2ccc(-n3ccc(NC(=O)N4CCN(C(=O)C(C)(C)N)CC4)nc3=O)cc2)C1 (stereo partly drawn) [Compound 42]
- IC50 [2, 3]: < 0.5 µM
- IC50 [1, 3]: > 1 µM
- MIC (A. baumannii (Ab); [4]): > 32 µg/mL
- MIC (E. coli (Ec); [5]): < 8 µg/mL
- MIC (E. faecalis (Ef); [4]): 8 to 32 µg/mL
- MIC (P. aeruginosa (Pa); [4]): 8 to 32 µg/mL

Structure (SMILES): C[C@@H]1CN(C(=O)Nc2ccn(-c3ccc(CN4CCC(CN)CC4)cc3)c(=O)n2)CCN1C(=O)C(C)(C)N [Compound 65]
- IC50 [2, 3]: < 0.5 µM
- IC50 [1, 3]: > 1 µM
- MIC (E. coli (Ec); [5]): < 8 µg/mL
- MIC (P. aeruginosa (Pa); [4]): > 32 µg/mL

Structure (SMILES): CC(C)(N)C(=O)N1CCN(C(=O)Nc2ccn(-c3ccc(CN4CC(CCN)C4)cc3)c(=O)n2)CC1 [Compound 134]
- IC50 [2, 3]: < 0.5 µM
- IC50 [1, 3]: > 1 µM
- MIC (A. baumannii (Ab); [4]): > 32 µg/mL
- MIC (E. coli (Ec); [5]): < 8 µg/mL
- MIC (E. faecalis (Ef); [4]): 8 to 32 µg/mL
- MIC (P. aeruginosa (Pa); [4]): > 32 µg/mL

Structure (SMILES): CC(N)C1CCCN(Cc2ccc(-n3ccc(NC(=O)N4CCN(C(=O)C(C)(C)N)CC4)nc3=O)cc2)C1 (stereo not drawn) [Compound 109]
- IC50 [2, 3]: < 0.5 µM
- IC50 [1, 3]: > 1 µM
- MIC (E. coli (Ec); [5]): < 8 µg/mL
- MIC (P. aeruginosa (Pa); [4]): > 32 µg/mL
- MIC (S. aureus (Sa); [6]): < 8 µg/mL

Structure (SMILES): C[C@@H]1CN(C(=O)[C@@](C)(N)CO)CCN1C(=O)Nc1ccn(-c2ccc(CN3CCC(N)CC3)cc2)c(=O)n1 [Compound 89]
- IC50 [2, 3]: < 0.5 µM
- IC50 [1, 3]: > 1 µM
- MIC (A. baumannii (Ab); [4]): > 32 µg/mL
- MIC (E. faecalis (Ef); [4]): > 32 µg/mL

Structure (SMILES): CC(C)(N)C(=O)N1CCN(C(=O)Nc2ccn(-c3ccc(CN4CC(CN)C4)cc3)c(=O)n2)CC1 [Compound 133]
- IC50 [2, 3]: < 0.5 µM
- IC50 [1, 3]: > 1 µM
- MIC (A. baumannii (Ab); [4]): > 32 µg/mL
- MIC (E. faecalis (Ef); [4]): > 32 µg/mL

Structure (SMILES): C[C@](N)(CO)C(=O)N1CCN(C(=O)Nc2ccn(-c3ccc(CN4CCC(N)CC4)c(Cl)c3)c(=O)n2)CC1 [Compound 98]
- IC50 [2, 3]: < 0.5 µM
- IC50 [1, 3]: > 1 µM
- MIC (E. coli (Ec); [5]): < 8 µg/mL
- MIC (P. aeruginosa (Pa); [4]): > 32 µg/mL
- MIC (S. aureus (Sa); [6]): < 8 µg/mL

Structure (SMILES): C[C@@H]1CN(CCc2ccc(-n3ccc(NC(=O)N4CCN(C(=O)C(C)(C)N)CC4)nc3=O)cc2)CC[C@H]1N [Compound 41]
- IC50 [2, 3]: < 0.5 µM
- IC50 [1, 3]: > 1 µM
- MIC (A. baumannii (Ab); [4]): > 32 µg/mL
- MIC (E. faecalis (Ef); [4]): 8 to 32 µg/mL

Structure (SMILES): C[C@](N)(CO)C(=O)N1CCN(C(=O)Nc2ccn(-c3ccc(CCN4CCC(NC(=N)N)CC4)cc3)c(=O)n2)CC1 [Compound 349, hydrochloride salt]
- IC50 ([2]; % inhibition @ 1 μM): < 0.5 µM
- IC50 ([1]; % inhibition @ 1 μM): 0.5 to 1 µM
- MIC (E. coli (Ec)): < 8 µg/mL
- MIC (S. aureus (Sa)): 8 to 32 µg/mL

Structure (SMILES): CC(N)[C@@H]1CCN(Cc2ccc(-n3ccc(NC(=O)N4CCN(C(=O)C(C)(C)N)CC4)nc3=O)cc2)C1 (stereo partly drawn) [Compound 44]
- IC50 [2, 3]: < 0.5 µM
- IC50 [1, 3]: > 1 µM
- MIC (A. baumannii (Ab); [4]): > 32 µg/mL
- MIC (E. faecalis (Ef); [4]): < 8 µg/mL

Structure (SMILES): CC(C)(N)C(=O)N1CCN(C(=O)Nc2ccn(-c3ccc(CN4CCC(N)CC4)c(Cl)c3)c(=O)n2)CC1 [Compound 99]
- IC50 [2, 3]: < 0.5 µM
- IC50 [1, 3]: > 1 µM
- MIC (E. coli (Ec); [5]): < 8 µg/mL
- MIC (P. aeruginosa (Pa); [4]): > 32 µg/mL

Structure (SMILES): CC1CN(Cc2ccc(-n3ccc(NC(=O)N4CCN(C(=O)[C@@](C)(N)CO)CC4)nc3=O)cc2)CCC1N (stereo partly drawn) [Compound 223]
- IC50 [2, 3]: 0.5 to 1 µM
- IC50 [1, 3]: > 1 µM
- MIC (A. baumannii (Ab); [7]): > 32 µg/mL
- MIC (E. coli (Ec); [8]): < 8 µg/mL
- MIC (E. faecalis (Ef); [7]): < 8 µg/mL
- MIC (P. aeruginosa (Pa); [7]): > 32 µg/mL

Structure (SMILES): CC(C)(N)C(=O)N1CCN(C(=O)Nc2ccn(-c3cccc(CCN4CCC(N)CC4)c3)c(=O)n2)CC1 [Compound 2]
- IC50 [2, 3]: < 0.5 µM
- IC50 [1, 3]: > 1 µM
- MIC (E. coli (Ec); [5]): 8 to 32 µg/mL
- MIC (P. aeruginosa (Pa); [4]): > 32 µg/mL

Structure (SMILES): CC(C)(N)C(=O)N1CCN(C(=O)Nc2ccn(-c3ccc(CNCC4(O)CNC4)cc3)c(=O)n2)CC1 [Compound 376]
- IC50 ([2]; % inhibition @ 1 μM): < 0.5 µM
- IC50 ([1]; % inhibition @ 1 μM): > 1 µM
- MIC (A. baumannii (Ab); [7]): > 32 µg/mL
- MIC (E. coli (Ec); [8]): < 8 µg/mL
- MIC (P. aeruginosa (Pa); [7]): > 32 µg/mL

— patent US12503452B2 (Curza Global, LLC, priority 2019, dated 2025)
